Measured values: patent US6733985B1, “Preparation of stable liquid and dried synthetic prothrombin time reagents” (International Technidyne Corporation, priority 1999, dated 2004)
Where a SMILES comes first, the peptide text is derived from it.

B1: recombinant tissue factor: recombinant tissue factor based PT reagent, named in b17 as comparison for sensitivity (protein, UniProt P13726 33-295, looked up)
Tissue factor: SGTTNTVAAYNLTWKSTNFKTILEWEPKPVNQVYTVQISTKSGDWKSKCFYTTDTECDLTDEIVKDVKQTYLARVFSYPAGNVESTGSAGEPLYENSPEFTPYLETNLGQPTIQSFEQVGTKVNVTVEDERTLVRRNNTFLSLRDVFGKDLIYTLYYWKSSSSGKKTAKTNTNEFLIDVDKGENYCFSVQAVIPSRTVNRKSTDSPVECMGQEKGEFREIFYIIGAVVFVVIILVIILAISLHKCRKAGVGQSWKENSPLNVS
modifications: PT reagent
notes: recombinant tissue factor based PT reagent, named in b17 as comparison for sensitivity

Tests used:
[1] = system: Level I (normal control) and Level III (abnormal control) control plasma; test: traditional prothrombin time test method using a Fibrometer; details: amino acid stabilizer compound formulated into PT reagent (summary of Examples 1 to 13)
Experimental: The concentration of the dissolved phospholipids was 12.76 mM. […] Additional bovine serum albumin was added to a concentration of 4.8 mg/ml. […] The dialyzed lipidated tissue factor, was then drained from the dialysis bag. […] The formulated material was frozen at −70° C., and then thawed. The thawed formulated material was incubated at 25 and 37° C. for 4 weeks, The reagent was taken out from the incubation at weekly intervals and subjected to coagulation assay by traditional prothrombin time test method using a Fibrometer. The control plasma samples used for the assay were Level I (normal control) and Level III (abnormal control) of Ortho Diagnostics Corporation. […] The Level III abnormal control plasma contains a reduced amount of coagulation factors representing the plasma of patients.

[2] = system: Control Level I or Level III plasma samples; test: clotting assay of air-dried reagent in cuvets for Protime instrument; format: biochemical; details: Example 11 lipidated tissue factor in 14 mM Hepes, 4% sorbitol, 1% β-alanine, with 1% polymeric carbohydrate or none
Experimental: The formulated material was air-dried at 20° C. and 5% relative humidity in cuvets for Protime instrument (a product of International Technidyne Corporation, Edison, N.J.). The produced cuvets with reagent were incubated at 25, 37 and 45° C. for stability studies. At given time intervals, the cuvets were taken out of the incubators and assayed for their clotting activities. Freshly withdrawn blood, Control Level I or Level III plasma samples were added to the cuvets with the dried reagent for assay. Calcium chloride, 8.3 mM, was added to the control plasmas and loaded on the cuvet immediately for assay. In this assay system, reconstitution of the dried reagent is done with plasma or blood, without using water, which is different from Fibrometer assay system. Thence, the kinetics involved in these two systems are different, as well as the clotting times. Whole blood contains a considerable amount of red blood cells and other blood components and its clotting activity is different from that of plasma. For comparison, the clotting time with freshly withdrawn whole blood at day zero was 22.8 seconds.
As shown in the results, γ-Cyclodextrin is a useful homogeneous polymeric carbohydrate to adjust the sensitivity of the synthetic PT reagent.

[3] = system: Level III and Level I plasma; details: prior art comparison; cited from earlier work

Molecule	Level III/I ratio test results [1]	further results
N=C(N)NCCC[C@H](N)C(=O)O [Arginine]	Unsatis-	–
N[C@@H](CC(=O)O)C(=O)O [Aspartic acid]	Unsatis-	–
NCCC(=O)O [Beta alanine]	Satisfac-	–
NCCCCC(=O)O [Delta aminovaleric acid]	Satisfac-	–
NCCCC(=O)O [Gamma aminobutyric acid]	Satisfac-	–
NCC(=O)NCC(=O)O [Glycylglycine] (H-Gly-Gly-OH)	Unsatis-	–
OC[C@H]1O[C@@H]2O[C@H]3[C@H](O)[C@@H](O)[C@@H](O[C@H]4[C@H](O)[C@@H](O)[C@@H](O[C@H]5[C@H](O)[C@@H](O)[C@@H](O[C@H]6[C@H](O)[C@@H](O)[C@@H](O[C@H]7[C@H](O)[C@@H](O)[C@@H](O[C@H]8[C@H](O)[C@@H](O)[C@@H](O[C@H]9[C@H](O)[C@@H](O)[C@@H](O[C@H]1[C@H](O)[C@H]2O)O[C@@H]9CO)O[C@@H]8CO)O[C@@H]7CO)O[C@@H]6CO)O[C@@H]5CO)O[C@@H]4CO)O[C@@H]3CO [γ-Cyclodextrin]	–	Clotting Times, Level I [2]: 17.6 s; Clotting Times, Level III [2]: 81.8 s; III/I Ratio [2]: 4.7
NCCCCCC(=O)O [ε-aminocaproic acid]	Unsatis-	–
B1	–	Level III/I sensitivity [3]: 4.0
